Test results: ChEMBL document CHEMBL1159326, “Three new homoisoflavanone glycosides from the bulbs of Ornithogalum caudatum” (J Nat Prod, 2002)
Activity calls are given as the source filed them. No cut-off for these calls is given here.

Assays:
P388 = experiment: Antitumor activity in mouse P388 cells; format: functional, cell-based
A549 = experiment: Antitumor activity in human A549 cells; format: functional, cell-based

Row | Compound | Activity (P388) | Activity (A549)
1 | COc1ccc(C[C@]2(O)COc3cc(OC)cc(O[C@@H]4O[C@H](CO[C@@H]5O[C@@H](C)[C@H](O)[C@@H](O)[C@H]5O)[C@@H](O)[C@H](O)[C@H]4O)c3C2=O)cc1 | inactive | inactive
2 | COc1ccc(C[C@]2(O)COc3cc(OC)cc(O[C@@H]4O[C@H](CO)[C@@H](O)[C@H](O)[C@H]4O)c3C2=O)cc1 | inactive | inactive
3 | COc1ccc(C[C@]2(O)COc3cc(OC)cc(O[C@@H]4O[C@H](CO)[C@@H](O)[C@H](O)[C@H]4O[C@@H]4O[C@@H](C)[C@H](O)[C@@H](O)[C@H]4O)c3C2=O)cc1 | inactive | inactive
